Laboratory results published in US10711000B2 (Fronthera U.S. Pharmaceuticals LLC, priority 2018, dated 2020).
Where two headings read alike, the source gives them in different places.

What was measured:
[1] = target: T1, Autotaxin (Rattus norvegicus, UniProt Q64610); assay: Pharmacodynamics: LPA 18:2 inhibition in plasma of SD rats after oral dose; conditions: single oral dose, LPA18:2 inhibition vs plasma concentration of compound, read-out: In vivo rat IC50 (LPA 18:2) (converted)
T1 construct: from tissue; host or cells: SD rats in vivo; plasma sampled after a single oral dose
Text: (§1) The pharmacokinetics and pharmacodynamics of test compounds after a single oral dose were investigated in SD rats, Beagle dog and Cynomolgus monkey. SD Rats (200-250 g) were purchased from Beijing Vital River Laboratory Animal Technology Co., Ltd. Male Beagle Dog, 6-9 kg, were purchased from Beijing Mashall. Male Cynomolgus monkeys, 3-5 kg, were purchased from Suzhou Xishan Zhongke Drugs Research and Development Co., Ltd. Following arrival, the animals were acclimated for 7 days in individual cages maintained at ambient temperature, 34 to 68% relative humidity, and 12-h light/dark cycles. Just prior to dose administration the rats were fasted overnight with free access to water. Animals were given 10 mL/kg of formulated compound in 0.5% methylcellulose (MC) by oral gavage, and the animals were fed four hours after dosing. The animals were manually restrained at the designated time points (pre-dose, 0.5, 1, 3, 6, 9, 12, and 24 h post-dose) to collect blood. Approximately 120 μL of blood was collected via orbital sinus into K2EDTA tubes. The blood samples were centrifuged at 5000 rpm for 10 min at 4° C. to obtain plasma samples.
Autotaxin is a secreted phosphodiesterase that converts lysophosphatidylcholine (LPC) into lysophosphatidic acid (LPA), and LPA 18:2 formation was used to evaluate the efficacy of autotaxin inhibitors. Therefore, the LPA 18:2 formation in response to drug administration was analyzed in each time point to assess the pharmacodynamics of test compounds. To determine the LPA18:2 concentration in study plasma, a 10× calibration standard of LPA 18:2 were prepared by serial dilution in butyl alcohol: 20000, 10000, 5000, 2000, 1000, 500, 200, 100, 50, 20, and 10 ng/mL. 3 μL of calibration standard solution was added into 27.0 μL of blank plasma in 1.5-mL microcentrifuge tubes to generate 1× calibration standards. The 30.0 μL of standards or study plasma was added into 1.5-mL microcentrifuge tubes. 200 μL of butyl alcohol (containing 25.0 ng/mL LPA17:0 for internal control) was added into each 1.5-mL microcentrifuge tube containing study plasma or calibration standards. After vortexing for 1 minute and centrifuging at 10000 rpm for 10 min, 180 μL of supernatant was transferred into a 96-well plate and the LPA18:2 concentration in the plasma was quantitated using LC/MS/MS together with standards. Briefly, 8 μL of the solutions were injected for LC-MS/MS analysis using an ACQUITY UPLC BEH C18 column (2.1×50 mm, 1.7 μm) with mobile phase A [20 mM NH4OAC in water (0.1% FA)] and phase B [5 mM NH4OAC in water/0.2% FA in ACN=5:95]. Mass spectrometer parameters optimization for LPA18:2 were performed by infusing standard diluted at 1 μg/mL in butyl Alcohol directly in the ionization source, at a flow of 10 μL/min. Deprotonated molecular ion at m/z 433.2 ([M−H]−) for LPA18:2, and abundant product ion at m/z 152.8 for LPA18:2 were obtained. Quantitative data were acquired in multiple reaction monitoring (MRM) negative electrospray ionization mode
The percentage of LPA18:2 inhibition was plotted against the corresponding concentration of compound and the IC50 was calculated through non-linear regression fitting.

[2] = target: T2, Autotaxin (Homo sapiens, UniProt Q13822); assay: LPA formation in pooled human plasma (ex vivo autotaxin inhibition); type: biochemical; conditions: 2 hours incubation
T2 construct: from tissue; host or cells: pooled human plasma
Method in brief: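 Ex vivo: LPA 18:2 and 20:4 levels in compound-treated versus untreated pooled human plasma after 2 h incubation, measured by butanol extraction and negative-mode MRM LC/MS/MS against calibration standards. IC50 from non-linear fit of inhibition versus concentration.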

[3] = Pharmacokinetics after a single oral dose in SD rats; type: in vivo; conditions: Sprague-Dawley, rat, plasma, single oral dose in 0.5% methylcellulose; for half-life: read-out: T½ (converted)
Text: as §1
To determine the compound concentration in the plasma samples, a 10× calibration standard of compound were prepared by serial dilution in DMSO: 20000, 10000, 5000, 2000, 1000, 500, 200, 100, 50, 20, and 10 ng/mL. 3 μL of calibration standard solution was added into 27.0 μL of blank plasma in 1.5-mL microcentrifuge tubes to generate 1× calibration standards. The 30.0 μL of standards or study plasma was mixed with 200 μL of acetonitrile (containing 5 ng/mL verapamil for internal control) in a 1.5-mL microcentrifuge tube. After vertexing for 1 minute and centrifuging at 10000 rpm for 10 min, 180 μL of supernatant was transferred into a 96-well plate and the compound concentration in the plasma was quantitated using LC/MS/MS together with standards. Briefly, 1 μL of the solutions were injected for LC-MS/MS analysis using an Agilent Zorbax C18 column (50×2.1 mm, 3.5 μm) with mobile phase A [5 mM NH4Ac (0.1% FA)] and phase B [Methanol (0.1% FA)]. Mass spectrometer parameters optimization for compound was performed by infusing standard diluted at 1 μg/mL in water/methanol (1/1, v/v) directly in the ionization source at a flow of 10 μL/min. Quantitative data were acquired in multiple reaction monitoring (MRM) positive APCI mode.

[4] = LPA 18:2 by LC/MS/MS, read-out: LPA formation (18:2) (IC50)
[5] = LPA 20:4 by LC/MS/MS, read-out: LPA formation (20:4) (IC50)

Q: For `CCn1nc2nc(C)c(N3CCN(CC(=O)N4CC(O)C4)CC3)cc2c1N(C)c1nc(-c2ccc(F)cc2)c(C#N)s1` [Compound 119, 2-((2-ethyl-5-(4-(2-(3-hydroxyazetidin-1-yl)-2-oxoethyl)piperazin-1-yl)-6-methyl-2H-pyrazolo[3,4-b]pyridin-3-yl)(methyl)amino)-4-(4-fluorophenyl)thiazole-5-carbonitrile], which IC50 [1] is on record?
A: Its IC50 is 18.6 nM.

Q: And the IC50 [2, 4]?
A: The IC50 was ≤ 100 nM.

Q: What about the IC50 [2, 5] of the same molecule?
A: Its IC50 is ≤ 100 nM.

Q: And the AUC [3]?
A: The AUC was 222 ± 160 ng·h/mL.

Q: What about the Cmax [3] of the same molecule?
A: Its Cmax is 96.2 ± 73 ng/mL.

Q: And the half-life [3]?
A: Its half-life is 1.64 ± 1.27 h.

Q: With `CCc1nn2cc(F)c(N3CCN(CC(=O)N4CC[C@@H](O)C4)CC3)cc2c1N(C)c1nc(-c2ccc(F)cc2)c(C#N)s1` [Example 109, (R)-2-((2-ethyl-6-fluoro-5-(4-(2-(3-hydroxypyrrolidin-1-yl)-2-oxoethyl)piperazin-1-yl)pyrazolo[1,5-a]pyridin-3-yl)(methyl)amino)-4-(4-fluorophenyl)thiazole-5-carbonitrile] as the molecule, how does the IC50 [1] read?
A: Its IC50 is 10 nM.

Q: And the IC50 [2, 4]?
A: The IC50 was ≤ 100 nM.

Q: And the IC50 [2, 5]?
A: Its IC50 is ≤ 100 nM.

Q: What about the AUC [3] of the same molecule?
A: The AUC was 269 ± 85 ng·h/mL.

Q: What about the Cmax [3] of the same molecule?
A: The Cmax was 67.1 ± 24 ng/mL.

Q: And the half-life [3]?
A: Its half-life is 3.46 ± 0.21 h.

Q: Which results are given for `CCc1nn2cc(F)c(N3CC4(CN(C(=O)C5CCN(C)CC5)C4)C3)cc2c1N(C)c1nc(-c2ccc(F)cc2)c(C#N)s1` [Example 106, 2-((2-ethyl-6-fluoro-5-(6-(1-methylpiperidine-4-carbonyl)-2,6-diazaspiro[3.3]heptan-2-yl)pyrazolo[1,5-a]pyridin-3-yl)(methyl)amino)-4-(4-fluorophenyl)thiazole-5-carbonitrile]?
A: IC50 [1]: 19.2 nM; IC50 [2, 4]: ≤ 100 nM; IC50 [2, 5]: ≤ 100 nM; AUC [3]: 350 ± 156 ng·h/mL; Cmax [3]: 29.2 ± 15 ng/mL; half-life [3]: 7.21 ± 0.98 h
